Assay results: patent US9499519B2, “Fused pyrimidine compounds and use thereof” (Medivation Technologies, Inc., priority 2012, dated 2016)
Where two headings read alike, the source gives them in different places.

Columns and labels:
[1] = tested on: Akt phosphorylation induced by IGF-1R; experiment: Western blot analysis of Akt phosphorylation induced by IGF-1 in HT-29 cells; format: cell-based, Human; conditions: for Levels of phosphorylated AKT in treated cells (pAKT/actin): HT-29 cells, IGF-1; for p-AKT relative to levels with 0.1 nM compound: Table B2 lower part; for Normalized phosphorylated AKT (relative to actin) levels relative to 0.1 nM compound treatment: Table B2 upper part
Protocol: Inhibition of Akt phosphorylation induced by IGF-1R was studied by western blot analysis. Human colon carcinoma HT-29 cells were seeded at a density of 8×10^4 cells/well in a 24-well plate and grown in DME/F12 media containing 10% FBS for 24 h. The cells were then depleted of serum by incubation in DME/F12 media lacking FBS for 24 h. […] […] Lysed cells were centrifuged at 13,000 rpm for 15 min and the protein concentration soluble fraction (supernatant) of each sample was determined using a BCA protein assay (Pierce).

IGF-1R = molecular target: T1, IGF-1R (Homo sapiens, UniProt P08069); experiment: In vitro IGF-1R enzymatic assay (ADP-Glo kinase assay); format: biochemical; conditions: activated IGF-1R; for inhibition at 0.03 µM / % Inh @ 30 nM (N1) / % Inh @ 30 nM (N2) / % Inh @ 30 nM Avg: 30 nM; for % Inh @ 30 nM (N1) / % Inh @ 30 nM (N2): 0.03 µM
T1 construct: purchased Millipore 14-802
T1 sequence (P08069 31-1367): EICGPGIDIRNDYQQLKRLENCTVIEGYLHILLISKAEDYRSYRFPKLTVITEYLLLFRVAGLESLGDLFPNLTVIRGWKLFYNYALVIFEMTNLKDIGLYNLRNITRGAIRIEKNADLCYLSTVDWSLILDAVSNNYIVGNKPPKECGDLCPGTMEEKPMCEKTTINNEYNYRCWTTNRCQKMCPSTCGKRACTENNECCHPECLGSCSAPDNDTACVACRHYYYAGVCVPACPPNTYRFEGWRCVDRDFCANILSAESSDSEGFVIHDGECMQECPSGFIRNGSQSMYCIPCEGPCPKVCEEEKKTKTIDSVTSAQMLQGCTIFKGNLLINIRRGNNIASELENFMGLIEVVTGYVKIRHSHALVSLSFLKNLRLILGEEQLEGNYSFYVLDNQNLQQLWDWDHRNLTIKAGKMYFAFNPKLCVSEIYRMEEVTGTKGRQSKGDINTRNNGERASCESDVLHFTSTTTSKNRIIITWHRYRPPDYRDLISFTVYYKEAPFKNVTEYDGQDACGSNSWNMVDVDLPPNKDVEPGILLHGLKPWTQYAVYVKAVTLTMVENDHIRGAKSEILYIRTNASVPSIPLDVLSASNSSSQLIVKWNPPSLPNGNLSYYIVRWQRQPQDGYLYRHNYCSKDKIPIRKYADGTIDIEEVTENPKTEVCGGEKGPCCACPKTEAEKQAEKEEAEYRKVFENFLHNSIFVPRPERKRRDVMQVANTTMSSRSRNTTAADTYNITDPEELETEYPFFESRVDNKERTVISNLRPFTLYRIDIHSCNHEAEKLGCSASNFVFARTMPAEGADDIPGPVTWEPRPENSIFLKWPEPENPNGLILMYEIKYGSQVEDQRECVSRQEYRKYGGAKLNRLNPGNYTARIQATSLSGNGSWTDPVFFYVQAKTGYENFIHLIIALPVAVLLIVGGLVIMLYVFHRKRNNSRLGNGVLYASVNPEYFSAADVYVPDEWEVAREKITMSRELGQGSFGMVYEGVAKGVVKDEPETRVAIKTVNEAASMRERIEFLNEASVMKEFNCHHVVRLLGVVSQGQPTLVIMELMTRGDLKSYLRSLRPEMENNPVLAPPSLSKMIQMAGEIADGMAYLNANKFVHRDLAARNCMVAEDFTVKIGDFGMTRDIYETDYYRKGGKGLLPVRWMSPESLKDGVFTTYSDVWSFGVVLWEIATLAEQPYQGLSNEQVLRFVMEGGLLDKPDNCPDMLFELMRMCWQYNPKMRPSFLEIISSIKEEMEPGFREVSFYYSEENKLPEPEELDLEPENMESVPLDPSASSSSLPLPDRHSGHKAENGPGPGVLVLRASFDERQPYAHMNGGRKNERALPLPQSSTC
Protocol: (§1) IC50 values of the compounds of the invention against IGF-1R and IR were measured in vitro using an ADP-Glo kinase assay Kit (Promega). […] Kinase reactions in both assays were conducted at 30° C. for 20 min with increasing concentrations of compounds of the invention.
Additional compounds of the invention were screened against activated IGF-1R.

IR = molecular target: T2, IR (Homo sapiens, UniProt P06213); experiment: In vitro IR enzymatic assay (ADP-Glo kinase assay); format: biochemical; conditions: activated IR, 30 nM; for % Inh @ 30 nM (N1) / % Inh @ 30 nM (N2): 0.03 µM
T2 construct: purchased Millipore 14-803
T2 sequence (P06213 28-1382): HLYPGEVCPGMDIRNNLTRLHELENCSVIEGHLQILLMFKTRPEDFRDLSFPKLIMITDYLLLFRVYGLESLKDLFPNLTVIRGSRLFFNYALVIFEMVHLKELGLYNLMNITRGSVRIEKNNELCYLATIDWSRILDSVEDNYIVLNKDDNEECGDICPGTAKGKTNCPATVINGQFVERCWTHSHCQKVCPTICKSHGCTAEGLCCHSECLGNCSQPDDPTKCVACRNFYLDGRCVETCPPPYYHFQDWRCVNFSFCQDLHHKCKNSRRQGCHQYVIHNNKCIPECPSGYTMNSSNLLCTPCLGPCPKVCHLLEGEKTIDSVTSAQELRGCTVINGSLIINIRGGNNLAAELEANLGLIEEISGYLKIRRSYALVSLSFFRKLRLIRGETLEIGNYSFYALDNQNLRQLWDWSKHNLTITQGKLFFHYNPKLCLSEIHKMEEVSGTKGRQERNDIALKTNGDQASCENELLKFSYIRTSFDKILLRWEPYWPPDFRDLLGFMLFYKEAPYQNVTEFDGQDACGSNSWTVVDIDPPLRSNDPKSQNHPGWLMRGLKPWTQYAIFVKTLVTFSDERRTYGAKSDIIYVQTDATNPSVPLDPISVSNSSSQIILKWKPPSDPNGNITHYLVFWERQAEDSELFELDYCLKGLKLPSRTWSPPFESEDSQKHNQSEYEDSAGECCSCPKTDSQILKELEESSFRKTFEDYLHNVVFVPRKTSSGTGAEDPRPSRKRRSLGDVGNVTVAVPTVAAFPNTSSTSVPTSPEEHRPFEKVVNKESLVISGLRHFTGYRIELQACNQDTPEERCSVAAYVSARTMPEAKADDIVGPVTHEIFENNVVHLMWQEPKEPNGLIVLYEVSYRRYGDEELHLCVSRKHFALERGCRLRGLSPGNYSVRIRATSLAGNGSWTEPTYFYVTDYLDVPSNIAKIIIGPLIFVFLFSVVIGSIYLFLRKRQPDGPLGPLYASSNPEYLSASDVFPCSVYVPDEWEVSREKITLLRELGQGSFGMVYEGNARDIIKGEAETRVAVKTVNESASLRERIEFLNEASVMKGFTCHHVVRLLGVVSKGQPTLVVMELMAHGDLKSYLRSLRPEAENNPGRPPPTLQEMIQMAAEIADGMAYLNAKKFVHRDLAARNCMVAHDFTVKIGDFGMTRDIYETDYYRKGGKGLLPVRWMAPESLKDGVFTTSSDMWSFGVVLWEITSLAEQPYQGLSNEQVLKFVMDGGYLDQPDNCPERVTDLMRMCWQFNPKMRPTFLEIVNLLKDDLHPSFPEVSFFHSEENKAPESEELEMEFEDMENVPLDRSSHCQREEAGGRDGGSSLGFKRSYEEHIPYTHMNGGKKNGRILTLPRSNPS
Protocol: as §1
Additional compounds of the invention were screened against activated IR.

[2] = N1, read-out: % Inh @ 30 nM (N1)
[3] = N2, read-out: % Inh @ 30 nM (N2)
[4] = average, read-out: % Inh @ 30 nM Avg

Compound	inhibition at 0.03 µM (IGF-1R; [4]) [%]	inhibition at 0.03 µM (IR; [4]) [%]	% Inh @ 30 nM Avg (IGF-1R; average) [%]	% Inh @ 30 nM Avg (IR; average) [%]	Levels of phosphorylated AKT in treated cells (pAKT/actin) ([1]; 0.1 nM compound)	p-AKT relative to levels with 0.1 nM compound ([1]; 0.1 nM)	Normalized phosphorylated AKT (relative to actin) levels relative to 0.1 nM compound treatment ([1]; 0.1 nM)	Levels of phosphorylated AKT in treated cells (pAKT/actin) ([1]; 1 nM compound)	p-AKT relative to levels with 0.1 nM compound ([1]; 1 nM)	Normalized phosphorylated AKT (relative to actin) levels relative to 0.1 nM compound treatment ([1]; 1 nM)	Levels of phosphorylated AKT in treated cells (pAKT/actin) ([1]; 10 nM compound)	p-AKT relative to levels with 0.1 nM compound ([1]; 10 nM)	Normalized phosphorylated AKT (relative to actin) levels relative to 0.1 nM compound treatment ([1]; 10 nM)	Levels of phosphorylated AKT in treated cells (pAKT/actin) ([1]; 100 nM compound)	p-AKT relative to levels with 0.1 nM compound ([1]; 100 nM)	Normalized phosphorylated AKT (relative to actin) levels relative to 0.1 nM compound treatment ([1]; 100 nM)	other results
CC(C)c1cc(Nc2nc(N3CCCC3C(=O)Nc3ccc(F)nc3)nc3c2CCC3)on1 (racemic) [Compound 12b, N-(6-fluoropyridin-3-yl)-1-(4-(3-isopropylisoxazol-5-ylamino)-6,7-dihydro-5H-cyclopenta[d]pyrimidin-2-yl)pyrrolidine-2-carboxamide]	24	-12	–	–	3.66	1.0	1.0	3.56	1.0	1.0	4.32	1.2	1.2	2.29	0.6	0.6	inhibition at 0.03 µM (IGF-1R; [2]): 13%; inhibition at 0.03 µM (IGF-1R; [3]): 34%; inhibition at 0.03 µM (IR; [2]): -14%; inhibition at 0.03 µM (IR; [3]): -10%
O=C(Nc1ccc(F)nc1)C1CCCN1c1nc2c(c(Nc3cc(C4CC4)[nH]n3)n1)CCC2 (single isomer, unassigned) [Compound 2a, 1-(4-(5-cyclopropyl-1H-pyrazol-3-ylamino)-6,7-dihydro-5H-cyclopenta[d]pyrimidin-2-yl)-N-(6-fluoropyridin-3-yl)pyrrolidine-2-carboxamide]	3	5	–	–	1.70	1.0	1.0	1.78	1.0	1.0	1.81	1.1	1.1	1.72	1.0	1.0	inhibition at 0.03 µM (IGF-1R; [2]): -12%; inhibition at 0.03 µM (IGF-1R; [3]): 18%; inhibition at 0.03 µM (IR; [2]): 0%; inhibition at 0.03 µM (IR; [3]): 10%
O=C(Nc1ccc(F)nc1)C1CCCN1c1nc2c(c(Nc3cc(C4CCCC4)[nH]n3)n1)CCC2 (single isomer, unassigned) [Compound 4a, 1-(4-(3-cyclopentyl-1H-pyrazol-5-ylamino)-6,7-dihydro-5H-cyclopenta[d]pyrimidin-2-yl)-N-(6-fluoropyridin-3-yl)pyrrolidine-2-carboxamide]	–	–	10	−8	2.38	1.0	1.0	1.64	0.7	0.7	1.76	0.7	0.7	1.47	0.6	0.6	% Inh @ 30 nM (N1) (IGF-1R; N1): 4%; % Inh @ 30 nM (N2) (IGF-1R; N2): 17%; % Inh @ 30 nM (N1) (IR; N1): −14%; % Inh @ 30 nM (N2) (IR; N2): −2%
O=C(Nc1ccc(F)nc1)C1CCCN1c1nc2c(c(Nc3cc(C4CCCC4)[nH]n3)n1)CCC2 (single isomer, unassigned) [Compound 4b, 1-(4-(3-cyclopentyl-1H-pyrazol-5-ylamino)-6,7-dihydro-5H-cyclopenta[d]pyrimidin-2-yl)-N-(6-fluoropyridin-3-yl)pyrrolidine-2-carboxamide]	–	–	28	37	1.81	1.0	1.0	1.92	1.1	1.1	1.64	0.9	0.9	0.20	0.1	0.1	% Inh @ 30 nM (N1) (IGF-1R; N1): 22%; % Inh @ 30 nM (N2) (IGF-1R; N2): 35%; % Inh @ 30 nM (N1) (IR; N1): 41%; % Inh @ 30 nM (N2) (IR; N2): 33%
O=C(Nc1ccc(F)nc1)C1CC(O)CN1c1nc2c(c(Nc3cc(C4CC4)[nH]n3)n1)CCC2 (single isomer, unassigned) [Compound 10d, 1-(4-(5-cyclopropyl-1H-pyrazol-3-ylamino)-6,7-dihydro-5H-cyclopenta[d]pyrimidin-2-yl)-N-(6-fluoropyridin-3-yl)-4-hydroxypyrrolidine-2-carboxamide]	84	85	–	–	–	–	–	–	–	–	–	–	–	–	–	–	–
CC(C)c1cc(Nc2nc(N3CCCC3C(N)=O)nc3c2CCC3)n[nH]1 (single isomer, unassigned) [Compound 18a, 1-(4-(5-isopropyl-1H-pyrazol-3-ylamino)-6,7-dihydro-5H-cyclopenta[d]pyrimidin-2-yl)pyrrolidine-2-carboxamide]	–	–	14	3	–	–	–	–	–	–	–	–	–	–	–	–	–
CC(C)c1cc(Nc2nc(N3CCCC3C(N)=O)nc3c2CCC3)n[nH]1 (single isomer, unassigned) [Compound 18b, 1-(4-(5-isopropyl-1H-pyrazol-3-ylamino)-6,7-dihydro-5H-cyclopenta[d]pyrimidin-2-yl)pyrrolidine-2-carboxamide]	–	–	39	32	–	–	–	–	–	–	–	–	–	–	–	–	–
CNC(=O)C1CCCN1c1nc2c(c(Nc3cc(C(C)C)[nH]n3)n1)CCC2 (single isomer, unassigned) [Compound 19a, 1-(4-(5-isopropyl-1H-pyrazol-3-ylamino)-6,7-dihydro-5H-cyclopenta[d]pyrimidin-2-yl)-N-methylpyrrolidine-2-carboxamide]	–	–	−3	−9	–	–	–	–	–	–	–	–	–	–	–	–	–

Further lines, with some results ahead:

inhibition at 0.03 µM (IGF-1R; [4]) [%]	inhibition at 0.03 µM (IR; [4]) [%]	% Inh @ 30 nM Avg (IGF-1R; average) [%]	% Inh @ 30 nM Avg (IR; average) [%]	Compound	Levels of phosphorylated AKT in treated cells (pAKT/actin) ([1]; 0.1 nM compound)	p-AKT relative to levels with 0.1 nM compound ([1]; 0.1 nM)	Normalized phosphorylated AKT (relative to actin) levels relative to 0.1 nM compound treatment ([1]; 0.1 nM)	Levels of phosphorylated AKT in treated cells (pAKT/actin) ([1]; 1 nM compound)	p-AKT relative to levels with 0.1 nM compound ([1]; 1 nM)	Normalized phosphorylated AKT (relative to actin) levels relative to 0.1 nM compound treatment ([1]; 1 nM)	Levels of phosphorylated AKT in treated cells (pAKT/actin) ([1]; 10 nM compound)	p-AKT relative to levels with 0.1 nM compound ([1]; 10 nM)	Normalized phosphorylated AKT (relative to actin) levels relative to 0.1 nM compound treatment ([1]; 10 nM)	Levels of phosphorylated AKT in treated cells (pAKT/actin) ([1]; 100 nM compound)	p-AKT relative to levels with 0.1 nM compound ([1]; 100 nM)	Normalized phosphorylated AKT (relative to actin) levels relative to 0.1 nM compound treatment ([1]; 100 nM)	other results
66	60	–	–	CC(C)c1cc(Nc2nc(N3CC(O)CC3C(=O)Nc3ccc(F)nc3)nc3c2CCC3)n[nH]1 (racemic) [Compound 70, N-(6-fluoropyridin-3-yl)-4-hydroxy-1-(4-(5-isopropyl-1H-pyrazol-3-ylamino)-6,7-dihydro-5H-cyclopenta[d]pyrimidin-2-yl)pyrrolidine-2-carboxamide]	–	–	–	–	–	–	–	–	–	–	–	–	IC50 (IGF-1R): 22 nM
–	–	21	9	CNC(=O)C1CCCN1c1nc2c(c(Nc3cc(C(C)C)[nH]n3)n1)CCC2 (single isomer, unassigned) [Compound 19b, 1-(4-(5-isopropyl-1H-pyrazol-3-ylamino)-6,7-dihydro-5H-cyclopenta[d]pyrimidin-2-yl)-N-methylpyrrolidine-2-carboxamide]	–	–	–	–	–	–	–	–	–	–	–	–	–
13	8	–	–	CC(C)c1cc(Nc2nc(N3CCCC3C(=O)N(C)c3ccc(F)nc3)nc3c2CCC3)n[nH]1 (stereo not drawn) [Compound 55a, N-(6-fluoropyridin-3-yl)-1-(4-((5-isopropyl-1H-pyrazol-3-yl)amino)-6,7-dihydro-5H-cyclopenta[d]pyrimidin-2-yl)-N-methylpyrrolidine-2-carboxamide]	–	–	–	–	–	–	–	–	–	–	–	–	–
